Source: patent US12077503B2, “Substituted cyclic amides and their use as herbicides” (FMC CORPORATION, priority 2015, dated 2024)

Legend:
Type in all cases: in vivo
[1] = tested on: ryegrass, Italian (Italian ryegrass, Lolium multiflorum); experiment: Test A preemergence; conditions: Preemergence; for Plant response rating, Ryegrass, Italian: 125 g ai/ha, visual injury after approximately 10 d, 0 to 100 scale where 0 is no effect and 100 is complete control; for Ryegrass, Italian plant response rating (0 to 100 scale, 0 is no effect, 100 is complete control): 500 g ai/ha, visual injury approx. 10 d
Procedure, shortened: (§1)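 Greenhouse, ~10 d after spray; visual injury vs untreated controls, 0 = no effect, 100 = complete control. Preemergence: directed soil spray over planted seeds. Postemergence: plants 2–10 cm, 1–2 leaf stage. Loam/sand blend. Compound in non-phytotoxic solvent with surfactant.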

[2] = tested on: pigweed (Amaranthus retroflexus); experiment: Test A preemergence; conditions: Preemergence; for Plant response rating, Pigweed: 125 g ai/ha, visual injury after approximately 10 d, 0 to 100 scale where 0 is no effect and 100 is complete control; for Pigweed plant response rating (0 to 100 scale, 0 is no effect, 100 is complete control): 500 g ai/ha, visual injury approx. 10 d
[3] = tested on: ragweed (common ragweed, Ambrosia elatior); experiment: Test A preemergence; conditions: Preemergence; for Plant response rating, Ragweed: 125 g ai/ha, visual injury after approximately 10 d, 0 to 100 scale where 0 is no effect and 100 is complete control; for Ragweed plant response rating (0 to 100 scale, 0 is no effect, 100 is complete control): 500 g ai/ha, visual injury approx. 10 d
Procedure, shortened: as §1

[4] = tested on: Kochia (Kochia scoparia); experiment: Test A preemergence; conditions: Preemergence; for Plant response rating, Kochia: 125 g ai/ha, visual injury after approximately 10 d, 0 to 100 scale where 0 is no effect and 100 is complete control; for Kochia plant response rating (0 to 100 scale, 0 is no effect, 100 is complete control): 500 g ai/ha, visual injury approx. 10 d
Procedure, shortened: as §1

[5] = tested on: giant foxtail (Setaria faberii); experiment: Test A preemergence; conditions: Preemergence; for Plant response rating, Foxtail, Giant: 125 g ai/ha, visual injury after approximately 10 d, 0 to 100 scale where 0 is no effect and 100 is complete control; for Foxtail, Giant plant response rating (0 to 100 scale, 0 is no effect, 100 is complete control): 500 g ai/ha, visual injury approx. 10 d
Procedure, shortened: as §1

[6] = tested on: barnyardgrass (Echinochloa crus-galli); experiment: Test A preemergence; conditions: Preemergence; for Plant response rating, Barnyardgrass: 125 g ai/ha, visual injury after approximately 10 d, 0 to 100 scale where 0 is no effect and 100 is complete control; for Barnyardgrass plant response rating (0 to 100 scale, 0 is no effect, 100 is complete control): 500 g ai/ha, visual injury approx. 10 d
Procedure, shortened: as §1

[7] = tested on: ducksalad (Heteranthera limosa); experiment: Test B flooded paddy test; conditions: Flood, 250 g ai/ha; 0 to 100 scale where 0 is no effect and 100 is complete control; 13 to 15 d
Procedure, shortened: (§2)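 Greenhouse paddy pots with 2-leaf stage plants received compound by direct addition to floodwater 3 cm deep, kept at that level. Scored visually at 13–15 d versus controls (0 no effect; 100 complete control).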

[8] = tested on: rice (Oryra sativa); experiment: Test B flooded paddy test; conditions: Flood, 250 g ai/ha; 0 to 100 scale where 0 is no effect and 100 is complete control; 13 to 15 d
Procedure, shortened: as §2

[9] = tested on: barnyardgrass (Echinochloa crus-galli); experiment: Test B flooded paddy test; conditions: Flood, 250 g ai/ha; 0 to 100 scale where 0 is no effect and 100 is complete control; 13 to 15 d
Procedure, shortened: as §2

[10] = tested on: sedge, umbrella (small-flower umbrella sedge, Cyperus difformis); experiment: Test B flooded paddy test; conditions: Flood, 250 g ai/ha; 0 to 100 scale where 0 is no effect and 100 is complete control; 13 to 15 d
Procedure, shortened: as §2

[11] = tested on: ryegrass, Italian (Italian ryegrass, Lolium multiflorum); experiment: Test A postemergence
Procedure, shortened: as §1

[12] = tested on: corn (Zea mays); experiment: Test A postemergence
Procedure, shortened: as §1

[13] = tested on: pigweed (Amaranthus retroflexus); experiment: Test A postemergence
Procedure, shortened: as §1

[14] = tested on: ragweed (common ragweed, Ambrosia elatior); experiment: Test A postemergence
Procedure, shortened: as §1

[15] = tested on: Kochia (Kochia scoparia); experiment: Test A postemergence
Procedure, shortened: as §1

[16] = tested on: giant foxtail (Setaria faberii); experiment: Test A postemergence
Procedure, shortened: as §1

[17] = tested on: barnyardgrass (Echinochloa crus-galli); experiment: Test A postemergence
Procedure, shortened: as §1

[18] = tested on: blackgrass (Alopecurus myosuroides); experiment: Test A postemergence
Procedure, shortened: as §1

[19] = tested on: wheat (Triticum aestivum); experiment: Test A postemergence
Procedure, shortened: as §1

[20] = tested on: Galium (catchweed bedstraw, Galium aparine); experiment: Test A postemergence
Procedure, shortened: as §1

[21] = 125 g ai/ha, postemergence, visual rating after approx. 10 d, 0 to 100 scale (0 no effect, 100 complete control)
[22] = Postemergence, 500 g ai/ha, 0 to 100 scale where 0 is no effect and 100 is complete control

Structure (SMILES)	Plant response rating, Ryegrass, Italian [1]	Ryegrass, Italian plant response rating (0 to 100 scale, 0 is no effect, 100 is complete control) [1]	Plant response rating, Pigweed [2]	Pigweed plant response rating (0 to 100 scale, 0 is no effect, 100 is complete control) [2]	Plant response rating, Ragweed [3]	Ragweed plant response rating (0 to 100 scale, 0 is no effect, 100 is complete control) [3]	Plant response rating, Kochia [4]	Kochia plant response rating (0 to 100 scale, 0 is no effect, 100 is complete control) [4]	Plant response rating, Foxtail, Giant [5]	Foxtail, Giant plant response rating (0 to 100 scale, 0 is no effect, 100 is complete control) [5]	Plant response rating, Barnyardgrass [6]	Barnyardgrass plant response rating (0 to 100 scale, 0 is no effect, 100 is complete control) [6]	Plant response rating, Ducksalad [7]	Plant response rating, Rice [8]	Plant response rating, Barnyardgrass [9]	Plant response rating, Sedge, Umbrella [10]	Plant response rating, Ryegrass, Italian [11, 21]	Plant response rating, Ryegrass, Italian [11, 22]	Plant response rating, Corn [12, 21]	Plant response rating, Corn [12, 22]	further results
CC(C)Oc1cccc(C2CNC(=O)C2C(=O)Nc2ccc(F)c(F)c2F)c1 (stereo not drawn) [Compound 554]	20	40	0	30	20	70	70	90	90	90	90	90	100	25	55	0	40	90	40	70	Plant response rating, Pigweed [13, 21]: 0; Plant response rating, Pigweed [13, 22]: 0; Plant response rating, Ragweed [14, 21]: 0; Plant response rating, Ragweed [14, 22]: 30; Plant response rating, Kochia [15, 21]: 20; Plant response rating, Kochia [15, 22]: 50; Plant response rating, Foxtail, Giant [16, 21]: 70; Plant response rating, Foxtail, Giant [16, 22]: 80; Plant response rating, Barnyardgrass [17, 21]: 80; Plant response rating, Barnyardgrass [17, 22]: 90; Plant response rating, Blackgrass [18, 21]: 60; Plant response rating, Blackgrass [18, 22]: 70; Plant response rating, Wheat [19, 21]: 20; Plant response rating, Wheat [19, 22]: 50; Plant response rating, Galium [20, 21]: 60; Plant response rating, Galium [20, 22]: 60
O=C1NCC(c2cc(C(F)(F)F)cc(C(F)(F)F)c2)C1C(=O)Nc1ccc(F)cc1F (stereo not drawn) [Compound 589]	0	40	0	0	0	0	0	0	80	90	80	90	70	20	60	0	20	40	10	60	Plant response rating, Pigweed [13, 21]: 0; Plant response rating, Pigweed [13, 22]: 0; Plant response rating, Ragweed [14, 21]: 0; Plant response rating, Ragweed [14, 22]: 0; Plant response rating, Kochia [15, 21]: 0; Plant response rating, Kochia [15, 22]: 0; Plant response rating, Foxtail, Giant [16, 21]: 80; Plant response rating, Foxtail, Giant [16, 22]: 80; Plant response rating, Barnyardgrass [17, 21]: 60; Plant response rating, Barnyardgrass [17, 22]: 80; Plant response rating, Blackgrass [18, 21]: 20; Plant response rating, Blackgrass [18, 22]: 40; Plant response rating, Wheat [19, 21]: 0; Plant response rating, Wheat [19, 22]: 50; Plant response rating, Galium [20, 21]: 0; Plant response rating, Galium [20, 22]: 0
